Experimental data reported in PubChem BioAssay AID1963852 (Molecular Pharmacology Branch, DTP, NCI, 2024).
pIC50: −log10 of the molar value.

System: 282377-053-R-J1-PDC complex spheroid viability
Assay: Anticancer human tumor 282377-053-R-J1-PDC patient-derived colon adenocarcinoma cell line growth inhibition [POLQ]
Conditions: for pIC50: curve of first compound; for viability, T/C: stronger effect = lower value
How it was run: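 Three-cell-type spheroids modelling solid tumor plus stroma served as the readout system; POL inhibitors were tested individually and in combination, concentration ranges set by clinical Cmax where known.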

[1] = second compound 0.0316 µM, first compound 0.0316 µM
[2] = second compound 0.0316 µM, first compound 0.1 µM
[3] = second compound 0.0316 µM, first compound 0.316 µM
[4] = second compound 0.0316 µM, first compound 1 µM
[5] = second compound 0.0316 µM, first compound 3.16 µM
[6] = second compound 0.0316 µM, first compound 10 µM
[7] = second compound 0.1 µM, first compound 0.0316 µM
[8] = second compound 0.1 µM, first compound 0.1 µM
[9] = second compound 0.1 µM, first compound 0.316 µM
[10] = second compound 0.1 µM, first compound 1 µM
[11] = second compound 0.1 µM, first compound 3.16 µM
[12] = second compound 0.1 µM, first compound 10 µM
[13] = second compound 0.316 µM, first compound 0.0316 µM
[14] = second compound 0.316 µM, first compound 0.1 µM
[15] = second compound 0.316 µM, first compound 0.316 µM
[16] = second compound 0.316 µM, first compound 1 µM
[17] = second compound 0.316 µM, first compound 3.16 µM
[18] = second compound 0.316 µM, first compound 10 µM
[19] = second compound 1 µM, first compound 0.0316 µM
[20] = second compound 1 µM, first compound 0.1 µM
[21] = second compound 1 µM, first compound 0.316 µM
[22] = second compound 1 µM, first compound 1 µM
[23] = second compound 1 µM, first compound 3.16 µM
[24] = second compound 1 µM, first compound 10 µM
[25] = second compound 3.16 µM, first compound 0.0316 µM
[26] = second compound 3.16 µM, first compound 0.1 µM
[27] = second compound 3.16 µM, first compound 0.316 µM
[28] = second compound 3.16 µM, first compound 1 µM
[29] = second compound 3.16 µM, first compound 3.16 µM
[30] = second compound 3.16 µM, first compound 10 µM
[31] = second compound 10 µM, first compound 0.0316 µM
[32] = second compound 10 µM, first compound 0.1 µM
[33] = second compound 10 µM, first compound 0.316 µM
[34] = second compound 10 µM, first compound 1 µM
[35] = second compound 10 µM, first compound 3.16 µM
[36] = second compound 10 µM, first compound 10 µM
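Also: spheroids exposed to compounds for seven days.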
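For viability, T/C in this document: 100% = DMSO vehicle control viability.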

Nc1ccn(C2OC(CO)C(O)C2(F)F)c(=O)n1 (stereo not given) + Cc1cccc(N(C)C(=O)C2C(O)CCN2c2nc(C)cc(C(F)(F)F)c2C#N)c1
pIC50 (second compound 0.0316 µM): 7.01
pIC50 (second compound 0.1 µM): 7.02
pIC50 (second compound 0.316 µM): 7.02
pIC50 (second compound 1 µM): 7.00
pIC50 (second compound 3.16 µM): 6.94
pIC50 (second compound 10 µM): 6.95
viability, T/C [1]: 84%
viability, T/C [2]: 45.3%
viability, T/C [3]: 35.2%
viability, T/C [4]: 23.9%
viability, T/C [5]: 17.8%
viability, T/C [6]: 13.6%
viability, T/C [7]: 101%
viability, T/C [8]: 46.8%
viability, T/C [9]: 30.3%
viability, T/C [10]: 23.1%
viability, T/C [11]: 23.2%
viability, T/C [12]: 16%
viability, T/C [13]: 81.7%
viability, T/C [14]: 47%
viability, T/C [15]: 31.9%
viability, T/C [16]: 25.9%
viability, T/C [17]: 18.2%
viability, T/C [18]: 16.6%
viability, T/C [19]: 84.5%
viability, T/C [20]: 45.5%
viability, T/C [21]: 32.7%
viability, T/C [22]: 30.4%
viability, T/C [23]: 21.7%
viability, T/C [24]: 10.5%
viability, T/C [25]: 92.5%
viability, T/C [26]: 50.9%
viability, T/C [27]: 31.8%
viability, T/C [28]: 30.2%
viability, T/C [29]: 24.6%
viability, T/C [30]: 13.9%
viability, T/C [31]: 74.9%
viability, T/C [32]: 48.6%
viability, T/C [33]: 38.2%
viability, T/C [34]: 25%
viability, T/C [35]: 20.8%
viability, T/C [36]: 12.3%

COc1ccc([C@@H](O)c2cc(-c3ncnc4cc(N5CCOCC5)ccc34)c(F)cc2Cl)nn1 + COC1C(OC(N)=O)C(O)C(Oc2ccc3c(O)c(NC(=O)c4ccc(O)c(CC=C(C)C)c4)c(=O)oc3c2C)OC1(C)C
pIC50 (second compound 0.0316 µM): < 5.00
pIC50 (second compound 0.1 µM): < 5.00
pIC50 (second compound 0.316 µM): < 5.00
pIC50 (second compound 1 µM): < 5.00
pIC50 (second compound 3.16 µM): < 5.00
pIC50 (second compound 10 µM): < 5.00
viability, T/C [1]: 109%
viability, T/C [2]: 105%
viability, T/C [3]: 104%
viability, T/C [4]: 85.4%
viability, T/C [5]: 85.4%
viability, T/C [6]: 78.5%
viability, T/C [7]: 108%
viability, T/C [8]: 106%
viability, T/C [9]: 95.1%
viability, T/C [10]: 73.7%
viability, T/C [11]: 70.1%
viability, T/C [12]: 62.3%
viability, T/C [13]: 96.5%
viability, T/C [14]: 89.3%
viability, T/C [15]: 78.2%
viability, T/C [16]: 88.1%
viability, T/C [17]: 77.5%
viability, T/C [18]: 69.2%
viability, T/C [19]: 93.2%
viability, T/C [20]: 90.9%
viability, T/C [21]: 101%
viability, T/C [22]: 87.2%
viability, T/C [23]: 95%
viability, T/C [24]: 66.2%
viability, T/C [25]: 94%
viability, T/C [26]: 91.8%
viability, T/C [27]: 90.7%
viability, T/C [28]: 89.4%
viability, T/C [29]: 79.3%
viability, T/C [30]: 57.6%
viability, T/C [31]: 102%
viability, T/C [32]: 91.6%
viability, T/C [33]: 91.7%
viability, T/C [34]: 92.2%
viability, T/C [35]: 60.1%
viability, T/C [36]: 75.7%

Nc1ccn(C2OC(CO)C(O)C2(F)F)c(=O)n1 (stereo not given) + COC1C(OC(N)=O)C(O)C(Oc2ccc3c(O)c(NC(=O)c4ccc(O)c(CC=C(C)C)c4)c(=O)oc3c2C)OC1(C)C
pIC50 (second compound 0.0316 µM): 7.08
pIC50 (second compound 0.1 µM): 6.86
pIC50 (second compound 0.316 µM): 6.91
pIC50 (second compound 1 µM): 6.94
pIC50 (second compound 3.16 µM): 7.04
pIC50 (second compound 10 µM): 7.02
viability, T/C [1]: 80.7%
viability, T/C [2]: 41.5%
viability, T/C [3]: 28.9%
viability, T/C [4]: 27.2%
viability, T/C [5]: 22.7%
viability, T/C [6]: 11.6%
viability, T/C [7]: 79.7%
viability, T/C [8]: 60.3%
viability, T/C [9]: 23%
viability, T/C [10]: 26%
viability, T/C [11]: 20.7%
viability, T/C [12]: 13.5%
viability, T/C [13]: 107%
viability, T/C [14]: 51.5%
viability, T/C [15]: 32.5%
viability, T/C [16]: 27.8%
viability, T/C [17]: 21.1%
viability, T/C [18]: 12.5%
viability, T/C [19]: 93%
viability, T/C [20]: 48%
viability, T/C [21]: 32%
viability, T/C [22]: 33.3%
viability, T/C [23]: 21.8%
viability, T/C [24]: 10.6%
viability, T/C [25]: 76.5%
viability, T/C [26]: 47.1%
viability, T/C [27]: 27.9%
viability, T/C [28]: 27.8%
viability, T/C [29]: 21.3%
viability, T/C [30]: 11.1%
viability, T/C [31]: 90.2%
viability, T/C [32]: 47.2%
viability, T/C [33]: 28.1%
viability, T/C [34]: 32.7%
viability, T/C [35]: 24%
viability, T/C [36]: 13.8%

CC1COCCN1c1cc(-c2ccnn2C)c2ccnc(-c3ccn[nH]3)c2n1 (stereo not given) + Cc1cccc(N(C)C(=O)C2C(O)CCN2c2nc(C)cc(C(F)(F)F)c2C#N)c1
pIC50 (second compound 0.0316 µM): 6.42
pIC50 (second compound 0.1 µM): 6.26
pIC50 (second compound 0.316 µM): 6.54
pIC50 (second compound 1 µM): 6.44
pIC50 (second compound 3.16 µM): 6.32
pIC50 (second compound 10 µM): 6.20
viability, T/C [1]: 91.3%
viability, T/C [2]: 86.4%
viability, T/C [3]: 52.6%
viability, T/C [4]: 32.6%
viability, T/C [5]: 26.3%
viability, T/C [6]: 24.5%
viability, T/C [7]: 81.3%
viability, T/C [8]: 80.9%
viability, T/C [9]: 60.6%
viability, T/C [10]: 37.4%
viability, T/C [11]: 29.4%
viability, T/C [12]: 23%
viability, T/C [13]: 97%
viability, T/C [14]: 90.2%
viability, T/C [15]: 44.6%
viability, T/C [16]: 38.4%
viability, T/C [17]: 24.9%
viability, T/C [18]: 21.9%
viability, T/C [19]: 93.5%
viability, T/C [20]: 68.5%
viability, T/C [21]: 54.8%
viability, T/C [22]: 36.2%
viability, T/C [23]: 27.2%
viability, T/C [24]: 22.7%
viability, T/C [25]: 83.9%
viability, T/C [26]: 70.4%
viability, T/C [27]: 61.5%
viability, T/C [28]: 33.1%
viability, T/C [29]: 29.2%
viability, T/C [30]: 22.5%
viability, T/C [31]: 78.8%
viability, T/C [32]: 71%
viability, T/C [33]: 71.6%
viability, T/C [34]: 35.8%
viability, T/C [35]: 32.2%
viability, T/C [36]: 20.8%

CC1COCCN1c1cc(C2(S(C)(=N)=O)CC2)nc(-c2ccnc3[nH]ccc23)n1 (stereo not given) + COC1C(OC(N)=O)C(O)C(Oc2ccc3c(O)c(NC(=O)c4ccc(O)c(CC=C(C)C)c4)c(=O)oc3c2C)OC1(C)C
pIC50 (second compound 0.0316 µM): < 5.00
pIC50 (second compound 0.1 µM): 5.26
pIC50 (second compound 0.316 µM): 5.18
pIC50 (second compound 1 µM): 5.12
pIC50 (second compound 3.16 µM): 5.16
pIC50 (second compound 10 µM): 5.00
viability, T/C [1]: 108%
viability, T/C [2]: 89.1%
viability, T/C [3]: 110%
viability, T/C [4]: 76.9%
viability, T/C [5]: 74.9%
viability, T/C [6]: 56.7%
viability, T/C [7]: 92.4%
viability, T/C [8]: 104%
viability, T/C [9]: 88.5%
viability, T/C [10]: 72.1%
viability, T/C [11]: 61.9%
viability, T/C [12]: 39.6%
viability, T/C [13]: 103%
viability, T/C [14]: 82.1%
viability, T/C [15]: 83.6%
viability, T/C [16]: 81%
viability, T/C [17]: 80.4%
viability, T/C [18]: 33.9%
viability, T/C [19]: 115%
viability, T/C [20]: 90.2%
viability, T/C [21]: 91.5%
viability, T/C [22]: 81%
viability, T/C [23]: 79.5%
viability, T/C [24]: 39.9%
viability, T/C [25]: 99%
viability, T/C [26]: 93.3%
viability, T/C [27]: 85.3%
viability, T/C [28]: 107%
viability, T/C [29]: 59.6%
viability, T/C [30]: 45.3%
viability, T/C [31]: 104%
viability, T/C [32]: 119%
viability, T/C [33]: 79.8%
viability, T/C [34]: 92.3%
viability, T/C [35]: 66.1%
viability, T/C [36]: 49.7%
